Measured values published in ChEMBL document CHEMBL3039007, “Structure-based identification of OATP1B1/3 inhibitors” (Mol Pharmacol, 2013).

How the values were obtained:
[1] = molecular target: T1, Solute carrier organic anion transporter family member 1B1 (Homo sapiens, UniProt Q9Y6L6); details: chinese hamster, cho, 10 µM
T1 sequence (Q9Y6L6 whole entry): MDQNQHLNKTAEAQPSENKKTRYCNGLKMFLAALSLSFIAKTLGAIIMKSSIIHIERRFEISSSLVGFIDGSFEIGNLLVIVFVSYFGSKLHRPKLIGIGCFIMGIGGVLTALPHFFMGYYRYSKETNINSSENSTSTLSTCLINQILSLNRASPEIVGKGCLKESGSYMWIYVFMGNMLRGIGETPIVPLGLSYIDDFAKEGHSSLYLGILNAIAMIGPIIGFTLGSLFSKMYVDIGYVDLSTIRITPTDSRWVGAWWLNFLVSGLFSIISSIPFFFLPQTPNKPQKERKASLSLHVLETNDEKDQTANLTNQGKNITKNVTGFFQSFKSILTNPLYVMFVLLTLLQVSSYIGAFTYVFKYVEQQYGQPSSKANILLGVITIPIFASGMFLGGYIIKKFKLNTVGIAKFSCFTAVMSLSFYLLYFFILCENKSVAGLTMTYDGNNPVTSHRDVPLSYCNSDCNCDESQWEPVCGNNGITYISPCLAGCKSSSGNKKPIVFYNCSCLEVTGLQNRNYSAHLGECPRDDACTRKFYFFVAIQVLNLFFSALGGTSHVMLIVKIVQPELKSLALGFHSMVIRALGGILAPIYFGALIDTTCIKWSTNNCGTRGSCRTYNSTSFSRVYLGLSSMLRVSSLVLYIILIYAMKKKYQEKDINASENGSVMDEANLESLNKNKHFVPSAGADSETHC

[2] = molecular target: T2, Solute carrier organic anion transporter family member 1B3 (Homo sapiens, UniProt Q9NPD5); details: chinese hamster, cho, 10 µM
T2 sequence (Q9NPD5 whole entry): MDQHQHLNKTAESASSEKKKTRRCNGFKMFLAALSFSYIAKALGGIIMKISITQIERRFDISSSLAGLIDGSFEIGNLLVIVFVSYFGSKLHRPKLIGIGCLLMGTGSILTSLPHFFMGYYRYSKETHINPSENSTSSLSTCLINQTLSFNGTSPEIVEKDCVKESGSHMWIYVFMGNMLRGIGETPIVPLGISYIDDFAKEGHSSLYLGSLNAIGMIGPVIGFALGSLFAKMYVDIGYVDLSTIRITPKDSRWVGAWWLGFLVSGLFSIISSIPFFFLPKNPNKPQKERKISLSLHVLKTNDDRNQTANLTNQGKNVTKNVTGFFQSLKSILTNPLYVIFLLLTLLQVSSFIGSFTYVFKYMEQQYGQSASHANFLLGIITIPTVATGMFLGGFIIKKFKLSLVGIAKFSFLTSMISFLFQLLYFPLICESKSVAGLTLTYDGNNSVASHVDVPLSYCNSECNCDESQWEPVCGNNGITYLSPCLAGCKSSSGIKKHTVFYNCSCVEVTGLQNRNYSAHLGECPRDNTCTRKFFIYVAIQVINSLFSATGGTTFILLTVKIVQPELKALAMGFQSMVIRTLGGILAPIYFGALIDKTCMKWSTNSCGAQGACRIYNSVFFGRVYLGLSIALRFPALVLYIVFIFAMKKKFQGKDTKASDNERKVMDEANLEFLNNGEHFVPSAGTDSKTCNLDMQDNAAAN

## C#C[C@]1(O)CC[C@H]2[C@@H]3CCC4=Cc5oncc5C[C@]4(C)[C@H]3CC[C@@]21C [DANAZOL]
[1]
  residual activity: 80.9%
[2]
  residual activity: 95.7%

## O=C1CN(/N=C/c2ccc(-c3ccc([N+](=O)[O-])cc3)o2)C(=O)[N-]1.[Na+] [DANTROLENE SODIUM]
[1]
  residual activity: 111.7%
[2]
  residual activity: 114.3%

## O=c1ccc2ccc(O)c(O)c2o1 [DAPHNETIN]
[1]
  residual activity: 66.34%
[2]
  residual activity: 94.36%

## Nc1ccc(S(=O)(=O)c2ccc(N)cc2)cc1 [DAPSONE]
[1]
  residual activity: 78.21%
[2]
  residual activity: 84.17%

## CN(C)C(=O)Nc1ccc(Cl)c(Cl)c1 [DCMU]
[1]
  residual activity: 105.4%
[2]
  residual activity: 99%

## CC1(C)C(=O)C=C[C@]2(C)[C@H]3CC[C@@]4(C)[C@H](c5ccoc5)OC(=O)[C@H]5O[C@]54[C@]3(C)C(=O)C[C@@H]12 [DEACETOXY-7-OXOGEDUNIN]
[1]
  residual activity: 40.28%
[2]
  residual activity: 85.14%

## CC1(C)C(=O)C=C[C@]2(C)[C@H]3CC[C@@]4(C)[C@H](c5ccoc5)OC(=O)[C@H]5O[C@]54[C@]3(C)[C@H](O)C[C@@H]12 [DEACETYLGEDUNIN]
[1]
  residual activity: 74.35%
[2]
  residual activity: 60.92%

## CC(=O)N(O)CCCCCNC(=O)CCC(=O)N(O)CCCCCNC(=O)CCC(=O)N(O)CCCCCN.CS(=O)(=O)O [DEFEROXAMINE MESYLATE]
[1]
  residual activity: 116.4%
[2]
  residual activity: 98.92%

## COc1cc2c(cc1OC)[C@@H]1C(=O)c3ccc4c(c3O[C@@H]1CO2)C=CC(C)(C)O4 [DEGUELIN]
[1]
  residual activity: 99.89%
[2]
  residual activity: 75.69%

## CC(C)c1ccc2c(c1)CC[C@H]1[C@](C)(C(N)=O)CCC[C@]21C [DEHYDROABIETAMIDE]
[1]
  residual activity: 81.19%
[2]
  residual activity: 106.2%

## C=CCCCCCCCCCCC/C=C/C(O)COC(C)=O (stereo not drawn) [DEHYDROAVOCATIN-1-ACETATE]
[1]
  residual activity: 134.1%
[2]
  residual activity: 107.3%

## C[C@H](CCC(=O)O)[C@H]1CC[C@H]2[C@@H]3C(=O)C[C@@H]4CC(=O)CC[C@]4(C)[C@H]3CC(=O)[C@]12C [DEHYDROCHOLIC ACID]
[1]
  residual activity: 80.16%
[2]
  residual activity: 88.23%

## COc1cc2c(cc1OC)-c1c(oc3c4c(ccc3c1=O)OC(C(C)C)C4)CO2 (stereo not drawn) [DEHYDRODIHYDROROTENONE]
[1]
  residual activity: 89.82%
[2]
  residual activity: 95.69%

## CC(=O)O[C@H]1CC[C@@]2(C)C(=CC[C@@H]3[C@@H]2CC[C@]2(C)C(=O)CC[C@@H]32)C1 [DEHYDROEPIANDROSTERONE ACETATE]
[1]
  residual activity: 97.61%
[2]
  residual activity: 140.4%

## C=C(C)[C@H]1Cc2c(ccc3c(=O)c4c(oc23)COc2cc(OC)c(OC)cc2-4)O1 [DEHYDROROTENONE]
[1]
  residual activity: 113.5%
[2]
  residual activity: 92.82%

## COc1ccc2c(c1)OCc1c-2oc2cc(OC)ccc12 [DEHYDROVARIABILIN]
[1]
  residual activity: 136.9%
[2]
  residual activity: 89.07%

## CCN1C[C@]2(C)CC[C@H](OC)[C@@]34C1[C@]1(OCO[C@@]15C[C@H](OC)[C@H]1C[C@]3(O)[C@@H]5[C@H]1OC)[C@@H](OC(C)=O)[C@H]24 [DELTALINE]
[1]
  residual activity: 88.11%
[2]
  residual activity: 103.5%

## CN(C)[C@@H]1C(O)=C(C(N)=O)C(=O)[C@@]2(O)C(O)=C3C(=O)c4c(O)ccc(Cl)c4[C@@H](O)[C@H]3C[C@@H]12.Cl [DEMECLOCYCLINE HYDROCHLORIDE]
[1]
  residual activity: 104.7%
[2]
  residual activity: 90.61%

## Nc1ncnc2c1ncn2[C@H]1C[C@H](O)[C@@H](CO)O1 [DEOXYADENOSINE]
[1]
  residual activity: 112.3%
[2]
  residual activity: 106.4%

## CC1(C)C2CC(=O)O[C@@]3(C)C4=CC(=O)O[C@@H](c5ccoc5)[C@]4(C)CCC3[C@@]2(C)C=C[C@H]1O (stereo partly drawn) [DEOXYANDIROBIN LACTONE]
[1]
  residual activity: 29.53%
[2]
  residual activity: 53.06%

## C=C1C2=CC(=O)O[C@@H](c3ccoc3)[C@]2(C)CCC1[C@@]1(C)C=CC(=O)C(C)(C)[C@@H]1CC(=O)OC (stereo partly drawn) [DEOXYANDIROBIN]
[1]
  residual activity: 27.69%
[2]
  residual activity: 42.8%

## CC(=O)O[C@@H]1C=C[C@]2(C)C(C[C@@H](OC(C)=O)[C@]3(C)C4=CC(=O)O[C@H](c5ccoc5)[C@@]4(C)CCC23)C1(C)C (stereo partly drawn) [DEOXYGEDUNOL ACETATE]
[1]
  residual activity: 23.25%
[2]
  residual activity: 49.18%

## Nc1nc2c(ncn2[C@H]2C[C@H](O)[C@@H](CO)O2)c(=O)[nH]1 [DEOXYGUANOSINE]
[1]
  residual activity: 85.51%
[2]
  residual activity: 90.97%

## COc1ccc2c(c1)OCC(Cc1ccc(OC)c(OC(C)=O)c1)C2=O (stereo not drawn) [DEOXYSAPPANONE B 7,3'-DIMETHYL ETHER ACETATE]
[1]
  residual activity: 122.7%
[2]
  residual activity: 148.3%

## COc1ccc2c(c1)OCC(Cc1ccc(OC)c(OC)c1)C2=O (stereo not drawn) [DEOXYSAPPANONE B TRIMETHYL ETHER]
[1]
  residual activity: 174.5%
[2]
  residual activity: 150.7%

## Cc1cc(N)c2ccccc2[n+]1CCCCCCCCCC[n+]1c(C)cc(N)c2ccccc21.[Cl-].[Cl-] [DEQUALINIUM CHLORIDE]
[1]
  residual activity: 158.8%
[2]
  residual activity: 111.4%

## COc1ccc(-c2cc(C(F)F)nn2-c2ccc(S(N)(=O)=O)cc2)cc1F [DERACOXIB]
[1]
  residual activity: 127.8%
[2]
  residual activity: 98.95%

## CC(C)=CCc1c(O)cc2occ(-c3ccc4c(c3)OCO4)c(=O)c2c1O [DERRUBONE]
[1]
  residual activity: 115.1%
[2]
  residual activity: 106.9%

## COc1cc(OC)c2c(OC)c(-c3ccc4c(c3)OCO4)c(=O)oc2c1 [DERRUSNIN]
[1]
  residual activity: 141.7%
[2]
  residual activity: 115.7%

## COc1cc(OC)c2c(=O)c(-c3ccc4c(c3)OCO4)coc2c1 [DERRUSTONE]
[1]
  residual activity: 132.5%
[2]
  residual activity: 94.69%

## CC1=CC(=O)C2=C(C)CC[C@@H]3[C@H](OC(=O)[C@H]3C)[C@@H]12 [DESACETOXYMATRICARIN]
[1]
  residual activity: 129%
[2]
  residual activity: 118.5%

## CNCCCN1c2ccccc2CCc2ccccc21.Cl [DESIPRAMINE HYDROCHLORIDE]
[1]
  residual activity: 55.55%
[2]
  residual activity: 96.51%

## Cl.c1ccc2c(c1)CN1CCCC1=N2 [DESOXYPEGANINE HYDROCHLORIDE]
[1]
  residual activity: 132%
[2]
  residual activity: 113.9%

## CC(=O)OCC(=O)[C@@]1(O)[C@H](C)C[C@H]2[C@@H]3CCC4=CC(=O)C=C[C@]4(C)[C@@]3(F)[C@@H](O)C[C@@]21C [DEXAMETHASONE ACETATE]
[1]
  residual activity: 106%
[2]
  residual activity: 88.69%

## CN(C)CC[C@@H](c1ccc(Cl)cc1)c1ccccn1.O=C(O)/C=C\C(=O)O [DEXCHLORPHENIRAMINE MALEATE]
[1]
  residual activity: 117.7%
[2]
  residual activity: 103.6%

## CC(C)NC[C@@H](O)COc1cccc2ccccc12.Cl [DEXPROPRANOLOL HYDROCHLORIDE]
[1]
  residual activity: 108.7%
[2]
  residual activity: 103.2%

## Br.COc1ccc2c(c1)[C@]13CCCC[C@@H]1[C@H](C2)N(C)CC3.O [DEXTROMETHORPHAN HYDROBROMIDE]
[1]
  residual activity: 49.83%
[2]
  residual activity: 78.21%

## CC(=O)Oc1cccc2c1C(=O)c1c(OC(C)=O)cc(C(=O)O)cc1C2=O [DIACEREIN]
[1]
  residual activity: 72.58%
[2]
  residual activity: 86.69%

## C=CCSCC=C [DIALLYL SULFIDE]
[1]
  residual activity: 82.5%
[2]
  residual activity: 95.82%
